Test results: BindingDB's records for doi:10.1016/s0960-894x(99)00462-x (Abbott Laboratories, 1999)

Assay: Nicotinic acetylcholine receptor binding activity was determined by ability to displace [125I]alpha-BgT binding to rat brain membrane

SMILES | Ki [µM]
CN1CC[C@H]1COc1cncnc1 [5-((S)-1-Methyl-azetidin-2-ylmethoxy)-pyrimidine] | > 10
CN1CC[C@H](Oc2cccnc2)C1 [3-((S)-1-Methyl-pyrrolidin-3-yloxy)-pyridine] | > 10
c1ncc(OC[C@@H]2CCN2)cn1 [5-((S)-1-Azetidin-2-ylmethoxy)-pyrimidine] | > 10
CN1CC[C@@H](Oc2cccnc2)C1 [3-((R)-1-Methyl-pyrrolidin-3-yloxy)-pyridine] | > 10
